Measurements taken from ChEMBL document CHEMBL1157952, “Neocimicigenosides A and B, cycloartane glycosides from the rhizomes of Cimicifuga racemosa and their effects on CRF-stimulated ACTH secretion from AtT-20 cells” (2006).

Test system: AtT20
Assay: Induction of corticotropin releasing factor-stimulated ACTH secretion in mouse AtT20 cells
Type: functional

CC(=O)O[C@H]1[C@H]2C[C@@H](C)[C@H]3[C@](O2)(OC1(C)C)[C@H](O)[C@@]1(C)[C@@H]2CC[C@H]4C(C)(C)[C@@H](O[C@@H]5OC[C@H](O)[C@H](O)[C@H]5O)CC[C@@]45C[C@@]25CC[C@]31C [NEOCIMICIGENOSIDE A]
Activity: 7 ng/mL

CC(=O)O[C@H]1[C@H]2C[C@@H](C)[C@H]3[C@](O2)(OC1(C)C)[C@H](O)[C@@]1(C)[C@@H]2CC[C@H]4C(C)(C)[C@@H](O[C@@H]5OC[C@@H](O)[C@H](O)[C@H]5O)CC[C@@]45C[C@@]25CC[C@]31C [NEOCIMICIGENOSIDE B]
Activity: 7.2 ng/mL
